Experimental data reported in patent US20190031599A1, “INDANE DERIVATIVES AS MGLUR7 MODULATORS” (Takeda Pharmaceutical Company Limited, priority 2016, published 2019).
pEC50: −log10 of the molar value.

Target: T1, human mGluR7 (Homo sapiens, UniProt Q14831)
T1 construct: expressed in transfected cells
Experiment: mGluR7 assay: CRE-directed luciferase reporter gene assay, reduction of forskolin stimulated cAMP production
Assay type: cell-based
Conditions: stable CHO cell line expressing the CRE-luc reporter and human mGluR7 genes; decrease of forskolin stimulated luminescence; 10-point concentration-response, duplicate wells
Experimental: The ability of the test compounds to activate mGluR7 was determined by their ability to reduce forskolin stimulated cAMP production. Compounds were assessed in a CRE-directed luciferase reporter gene assay, using a stable CHO cell line expressing the CRE-luc reporter and human mGluR7 genes. In this cell line, production of cAMP stimulated the transcription of the luciferase gene and luciferase activity was then measured in a luminescent enzyme assay (Steady Glo assay; Promega E2550). Activation of mGluR7 decreased the forskolin stimulated luminescence signal.
The day prior to the assay, compounds were serially diluted in DMSO (100× final assay concentration (FAC)), in 384-well plates which were then stored in the dark at room temperature (RT) until use. Cells were seeded at 12.5 k/well in white, clear bottom 384-well plates (Corning 3707) and left for one hour at RT followed by an overnight incubation (37° C.). The following day, the DMSO compound plate was diluted 1:20 (5× FAC) in Opti-MEM I (Life Technologies 11058021). The growth media was removed from the cell plate and replaced with 15 μl Opti-MEM I, followed by a 5 μl addition from the 5× compound plate and a fifteen minute incubation (37° C.). Forskolin (Sigma F3917) was then added to the wells (5 μl of 2.5 μM) and the plate was incubated for five hours (37° C.). During this incubation, the Steady Glo Substrate reagent was warmed to 37° C. Aliquots (11 ml; stored at −20° C.) of this reagent were prepared by dissolving the contents of 1 vial of lyophilised substrate in 100 ml Steady-Glo buffer. A 25 μl addition of the substrate was made to all wells and the plate was incubated for thirty minutes at RT, on a plate shaker (300 rpm; in the dark). Luminescence was then measured using the EnVision Multilabel Reader (Perkin Elmer).
Compound activity was examined using a 10-point, half log concentration-response range and each concentration was tested in duplicate wells. Luminescence values were normalised to ‘maximum’ (forskolin alone) and ‘minimum’ (forskolin in the presence of tool mGluR7 agonist) controls.

T1 sequence (Q14831 35-915): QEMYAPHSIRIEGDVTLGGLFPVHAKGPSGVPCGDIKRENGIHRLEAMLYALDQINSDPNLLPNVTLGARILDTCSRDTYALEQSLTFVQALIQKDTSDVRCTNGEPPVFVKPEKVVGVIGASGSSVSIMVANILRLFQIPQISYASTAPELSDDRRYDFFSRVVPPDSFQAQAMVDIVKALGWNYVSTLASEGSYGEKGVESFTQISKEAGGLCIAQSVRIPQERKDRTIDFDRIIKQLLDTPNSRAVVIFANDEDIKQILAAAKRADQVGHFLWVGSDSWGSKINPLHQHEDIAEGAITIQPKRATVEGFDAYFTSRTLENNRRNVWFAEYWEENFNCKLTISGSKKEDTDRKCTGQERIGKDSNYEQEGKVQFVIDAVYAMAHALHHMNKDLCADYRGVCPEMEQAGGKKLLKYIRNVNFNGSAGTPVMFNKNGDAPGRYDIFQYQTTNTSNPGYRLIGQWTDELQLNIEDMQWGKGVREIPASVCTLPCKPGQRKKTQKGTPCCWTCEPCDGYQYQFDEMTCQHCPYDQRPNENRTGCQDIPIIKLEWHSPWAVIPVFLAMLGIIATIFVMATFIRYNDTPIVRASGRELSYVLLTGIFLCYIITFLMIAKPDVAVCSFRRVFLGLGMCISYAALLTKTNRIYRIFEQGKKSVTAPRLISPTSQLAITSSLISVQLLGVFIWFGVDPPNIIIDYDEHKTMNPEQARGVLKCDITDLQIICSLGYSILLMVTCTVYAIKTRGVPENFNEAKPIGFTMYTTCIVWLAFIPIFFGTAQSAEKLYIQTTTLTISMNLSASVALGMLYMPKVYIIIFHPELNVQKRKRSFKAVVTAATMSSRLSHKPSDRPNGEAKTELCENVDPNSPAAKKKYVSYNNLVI

Structure (SMILES)	pEC50
N[C@H]1c2ccccc2C[C@@H]1NC(=O)C(c1ccc(F)cc1)C1CC1 (single isomer, unassigned) [Example 96]	7.27
N[C@H]1c2ccccc2C[C@@H]1NC(=O)C(c1ccc(F)cc1)C1CC1 (single isomer, unassigned) [Example 97]	6.09
COC1c2ccccc2CC1NC(=O)[C@@H](NC(=O)C1CC1)c1ccc(F)cc1 (single isomer, unassigned) [Example 101]	8.22
COC1c2ccccc2CC1NC(=O)[C@@H](NC(=O)C1CC1)c1ccc(F)cc1 (single isomer, unassigned) [Example 102]	8.22
N[C@H]1c2ccccc2C[C@@H]1NC(=O)C(c1ccc(F)cc1F)N1CC(F)C1 (single isomer, unassigned) [Example 106]	7.09
N[C@H]1c2ccccc2C[C@@H]1NC(=O)C(c1ccc(F)cc1F)N1CC(F)C1 (single isomer, unassigned) [Example 107]	5.92
N[C@H]1c2ccccc2C[C@@H]1NC(=O)C(c1ccc(F)cc1F)n1ncccc1=O (single isomer, unassigned) [Example 109]	6.24
N[C@H]1c2ccccc2C[C@@H]1NC(=O)C(c1ccc(F)cc1F)n1ncccc1=O (single isomer, unassigned) [Example 110]	5.94
N[C@H]1c2ccccc2C[C@@H]1NC(=O)C(c1ccc(F)cc1)N1CC(F)C1 (single isomer, unassigned) [Example 115]	6.74
N[C@H]1c2ccccc2C[C@@H]1NC(=O)C(c1ccc(F)cc1)N1CC(F)C1 (single isomer, unassigned) [Example 116]	6.62
N[C@H]1c2ccccc2C[C@@H]1NC(=O)C(c1ccc(F)cc1)N1CC(F)C1 (single isomer, unassigned) [Example 117]	8.00
N[C@H]1c2ccccc2C[C@@H]1NC(=O)C(c1ccc(F)cc1)N1CC(F)C1 (single isomer, unassigned) [Example 118]	5.54
COC1c2ccccc2CC1NC(=O)C(c1ccc(F)cc1F)n1ncccc1=O (single isomer, unassigned) [Example 124, 2-(2,4-difluorophenyl)-N-(trans)-(1-methoxy-2,3-dihydro-1H-inden-2-yl)-2-(6-oxo-1,6-dihydropyridazin-1-yl)acetamide]	5.98
COC1c2ccccc2CC1NC(=O)C(c1ccc(F)cc1F)n1ncccc1=O (single isomer, unassigned) [Example 125, 2-(2,4-difluorophenyl)-N-(trans)-(1-methoxy-2,3-dihydro-1H-inden-2-yl)-2-(6-oxo-1,6-dihydropyridazin-1-yl)acetamide]	5.97
COC1c2ccccc2CC1NC(=O)C(c1ccc(F)cc1F)n1ncccc1=O (single isomer, unassigned) [Example 126, 2-(2,4-difluorophenyl)-N-(trans)-(1-methoxy-2,3-dihydro-1H-inden-2-yl)-2-(6-oxo-1,6-dihydropyridazin-1-yl)acetamide]	6.55
COC1c2ccccc2CC1NC(=O)C(c1ccc(F)cc1F)n1ncccc1=O (single isomer, unassigned) [Example 127, 2-(2,4-difluorophenyl)-N-(trans)-(1-methoxy-2,3-dihydro-1H-inden-2-yl)-2-(6-oxo-1,6-dihydropyridazin-1-yl)acetamide]	7.09
COC1c2ccccc2CC1NC(=O)C(c1ccc(F)cc1)n1ncccc1=O (single isomer, unassigned) [Example 128, 2-(4-fluorophenyl)-N-(trans)-(1-methoxy-2,3-dihydro-1H-inden-2-yl)-2-(6-oxo-1,6-dihydropyridazin-1-yl)acetamide]	5.88
COC1c2ccccc2CC1NC(=O)C(c1ccc(F)cc1)n1ncccc1=O (single isomer, unassigned) [Example 129, 2-(4-fluorophenyl)-N-(trans)-(1-methoxy-2,3-dihydro-1H-inden-2-yl)-2-(6-oxo-1,6-dihydropyridazin-1-yl)acetamide]	5.41

Structure (SMILES)	pEC50
COC1c2ccccc2CC1NC(=O)C(c1ccc(F)cc1)n1ncccc1=O (single isomer, unassigned) [Example 130, 2-(4-fluorophenyl)-N-(trans)-(1-methoxy-2,3-dihydro-1H-inden-2-yl)-2-(6-oxo-1,6-dihydropyridazin-1-yl)acetamide]	6.83
COC1c2ccccc2CC1NC(=O)C(c1ccc(F)cc1)n1ncccc1=O (single isomer, unassigned) [Example 131, 2-(4-fluorophenyl)-N-(trans)-(1-methoxy-2,3-dihydro-1H-inden-2-yl)-2-(6-oxo-1,6-dihydropyridazin-1-yl)acetamide]	7.05
COC1c2ccccc2CC1NC(=O)C(c1ccc(F)cc1F)N1CC(F)C1 (single isomer, unassigned) [Example 136, 2-(2,4-difluorophenyl)-2-(3-fluoroazetidin-1-yl)-N-(trans)-(1-methoxy-2,3-dihydro-1H-inden-2-yl)acetamide]	5.70
COC1c2ccccc2CC1NC(=O)C(c1ccc(F)cc1F)N1CC(F)C1 (single isomer, unassigned) [Example 137, 2-(2,4-difluorophenyl)-2-(3-fluoroazetidin-1-yl)-N-(trans)-(1-methoxy-2,3-dihydro-1H-inden-2-yl)acetamide]	6.13
COC1c2ccccc2CC1NC(=O)C(c1ccc(F)cc1F)N1CC(F)C1 (single isomer, unassigned) [Example 138, 2-(2,4-difluorophenyl)-2-(3-fluoroazetidin-1-yl)-N-(trans)-(1-methoxy-2,3-dihydro-1H-inden-2-yl)acetamide]	7.85
COC1c2ccccc2CC1NC(=O)C(c1ccc(F)cc1F)N1CC(F)C1 (single isomer, unassigned) [Example 139, 2-(2,4-difluorophenyl)-2-(3-fluoroazetidin-1-yl)-N-(trans)-(1-methoxy-2,3-dihydro-1H-inden-2-yl)acetamide]	7.21
COC1c2ccccc2CC1NC(=O)C(c1ccc(F)cc1)N1CC(F)C1 (single isomer, unassigned) [Example 140, 2-(4-fluorophenyl)-2-(3-fluoroazetidin-1-yl)-N-(trans)-(1-methoxy-2,3-dihydro-1H-inden-2-yl)acetamide]	5.90
COC1c2ccccc2CC1NC(=O)C(c1ccc(F)cc1)N1CC(F)C1 (single isomer, unassigned) [Example 141, 2-(4-fluorophenyl)-2-(3-fluoroazetidin-1-yl)-N-(trans)-(1-methoxy-2,3-dihydro-1H-inden-2-yl)acetamide]	7.41
COC1c2ccccc2CC1NC(=O)C(c1ccc(F)cc1)N1CC(F)C1 (single isomer, unassigned) [Example 142, 2-(4-fluorophenyl)-2-(3-fluoroazetidin-1-yl)-N-(trans)-(1-methoxy-2,3-dihydro-1H-inden-2-yl)acetamide]	7.21
COC1c2ccccc2CC1NC(=O)C(c1ccc(F)cc1)N1CC(F)C1 (single isomer, unassigned) [Example 143, 2-(4-fluorophenyl)-2-(3-fluoroazetidin-1-yl)-N-(trans)-(1-methoxy-2,3-dihydro-1H-inden-2-yl)acetamide]	5.90
COC1c2ccccc2CC1NC(=O)[C@H](NC(=O)C1CC1)c1ccc(F)cc1 (single isomer, unassigned) [Example 144]	6.72
CS(=O)(=O)C1c2ccccc2CC1NC(=O)C(OCC1CC1)c1ccccc1 (single isomer, unassigned) [Example 145, 2-(cyclopropylmethoxy)-N-(trans)-(1-methanesulfonyl-2,3-dihydro-1H-inden-2-yl)-2-phenylacetamide]	9.22
CS(=O)(=O)C1c2ccccc2CC1NC(=O)C(OCC1CC1)c1ccccc1 (single isomer, unassigned) [Example 146, 2-(cyclopropylmethoxy)-N-(trans)-(1-methanesulfonyl-2,3-dihydro-1H-inden-2-yl)-2-phenylacetamide]	8.40
CS(=O)(=O)C1c2ccccc2CC1NC(=O)C(OCC1CC1)c1ccccc1 (single isomer, unassigned) [Example 147, 2-(cyclopropylmethoxy)-N-(trans)-(1-methanesulfonyl-2,3-dihydro-1H-inden-2-yl)-2-phenylacetamide]	7.41
CS(=O)(=O)C1c2ccccc2CC1NC(=O)C(OCC1CC1)c1ccccc1 (single isomer, unassigned) [Example 148, 2-(cyclopropylmethoxy)-N-(trans)-(1-methanesulfonyl-2,3-dihydro-1H-inden-2-yl)-2-phenylacetamide]	7.80
CO[C@H](C(=O)NC1Cc2ccccc2C1S(C)(=O)=O)c1ccccc1 (single isomer, unassigned) [Example 158]	7.25
CO[C@H](C(=O)NC1Cc2ccccc2C1S(C)(=O)=O)c1ccccc1 (single isomer, unassigned) [Example 159]	7.60
